From US10710986B2, “PD-1/PD-L1 inhibitors” (Gilead Sciences, Inc., priority 2018, dated 2020)

Target: PD-1/PD-L1 (Homo sapiens (Human), UniProt Q9NZQ7)
Test: PD-1/PD-L1 biochemical protein-protein interaction assay (ALPHA)
Conditions: 0.3 nM His tagged PD-L1, 2.5 nM biotinylated Fc-PD-1, 60 minutes at 25° C., read-out: IC50 PD-L1-PD1
Experimental: Binding of the protein pairs is measured using a bead based Amplified Luminescent Proximity Homogeneous Assay (ALPHA) platform. Binding of each protein pair results in proximity of the donor and acceptor beads which leads to an increase in ALPHA signal. […] Assays are performed in 25 mM Hepes (pH 7.4), 150 mM NaCl, 3.4 mM EDTA, 0.005% Tween 20, and 0.01% BSA. […] After an assay reaction time of 60 minutes at 25° C., binding was measured with addition of 20 μg/mL ALPHA assay acceptor beads (anti-His coated) and 20 µg/mL ALPHA assay donor beads (streptavidin coated). IC50 values were calculated from the fit of the dose-response curves to a four-parameter equation.

PD-1/PD-L1, sequence (Q9NZQ7 19-238): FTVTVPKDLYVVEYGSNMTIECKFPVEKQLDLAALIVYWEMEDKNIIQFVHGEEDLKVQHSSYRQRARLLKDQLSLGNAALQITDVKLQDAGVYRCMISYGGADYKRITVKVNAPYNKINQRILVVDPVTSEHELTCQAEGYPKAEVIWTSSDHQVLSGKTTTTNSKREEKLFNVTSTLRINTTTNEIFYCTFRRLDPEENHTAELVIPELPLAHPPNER

IC50 [nM] | Compound
0.08 | COc1nc(-c2cccc(-c3cccc(-c4cnc(CN5CC6(CCC(=O)N6)C5)c(OC)n4)c3Cl)c2F)cnc1CN1CC2(CCC(=O)N2)C1 [compound 1]
0.135 | COc1nc(-c2cccc(-c3cccc(-c4cnc(CN5CC(O)C5)c(OC)n4)c3Cl)c2F)cnc1CN1CC(O)C1 [compound 2]
0.318 | COc1nc(-c2cccc(-c3cccc(-c4cnc(CN5CC(OC)C5)c(OC)n4)c3Cl)c2F)cnc1CN1CC(OC)C1 [compound 3]
0.086 | COc1nc(-c2cccc(-c3cccc(-c4cnc(CN5CC6(C5)CN(C(C)=O)C6)c(OC)n4)c3Cl)c2F)cnc1CN1CC2(C1)CN(C(C)=O)C2 [compound 4]
0.213 | COc1nc(-c2cccc(-c3cccc(-c4cnc(CNCCO)c(OC)n4)c3Cl)c2F)cnc1CNCCO [compound 5]
0.099 | COc1nc(-c2cccc(-c3cccc(-c4cnc(CNC[C@@H]5CCC(=O)N5)c(OC)n4)c3Cl)c2F)cnc1CNC[C@@H]1CCC(=O)N1 [compound 6]
0.43 | COc1nc(-c2cccc(-c3cccc(-c4cnc(CNC56CC(C#N)(C5)C6)c(OC)n4)c3Cl)c2Cl)cnc1CNC[C@@H]1CCC(=O)N1 [compound 7]
0.59 | COc1nc(-c2cccc(-c3cccc(-c4cnc(CNC56CC(OC)(C5)C6)c(OC)n4)c3Cl)c2Cl)cnc1CNC[C@@H]1CCC(=O)N1 [compound 8]
0.49 | COc1nc(-c2cccc(-c3cccc(-c4cnc(CN5CC(C)(C#N)C5)c(OC)n4)c3Cl)c2Cl)cnc1CNC[C@@H]1CCC(=O)N1 [compound 9]
0.27 | COc1nc(-c2cccc(-c3cccc(-c4cnc(CN5CC(C#N)C5)c(OC)n4)c3Cl)c2Cl)cnc1CNC[C@@H]1CCC(=O)N1 [compound 10]
0.172 | COc1nc(-c2cccc(-c3cccc(-c4cnc(CN[C@@H]5COC[C@H]5O)c(OC)n4)c3Cl)c2Cl)cnc1CNC[C@@H]1CCC(=O)N1 [compound 11]
1.49 | COc1nc(-c2cccc(-c3cccc(-c4cnc(CNC56CC(C5)C6)c(OC)n4)c3Cl)c2Cl)cnc1CNC[C@@H]1CCC(=O)N1 [compound 12]
0.482 | COc1nc(-c2cccc(-c3cccc(-c4cnc(CN5CC(C(N)=O)C5)c(OC)n4)c3Cl)c2Cl)cnc1CNC[C@@H]1CCC(=O)N1 [compound 13]
0.224 | COc1nc(-c2cccc(-c3cccc(-c4cnc(CN5CC(N6CCCC6=O)C5)c(OC)n4)c3Cl)c2Cl)cnc1CNC[C@@H]1CCC(=O)N1 [compound 14]
7.51 | COc1nc(-c2cccc(-c3cccc(-c4cnc(CNC56CC(C(F)(F)F)(C5)C6)c(OC)n4)c3Cl)c2Cl)cnc1CNC[C@@H]1CCC(=O)N1 [compound 15]
0.173 | COc1nc(-c2cccc(-c3cccc(-c4cnc(CN5CC(C)(O)C5)c(OC)n4)c3Cl)c2Cl)cnc1CNC[C@@H]1CCC(=O)N1 [compound 16]
0.163 | COc1nc(-c2cccc(-c3cccc(-c4cnc(CNC[C@H]5CCCN5C(C)=O)c(OC)n4)c3Cl)c2Cl)cnc1CNC[C@@H]1CCC(=O)N1 [compound 17]
0.266 | COc1nc(-c2cccc(-c3cccc(-c4cnc(CNC[C@@H]5CCCN5C(C)=O)c(OC)n4)c3Cl)c2Cl)cnc1CNC[C@@H]1CCC(=O)N1 [compound 18]
0.199 | CNC(=O)[C@@H]1CCCN1Cc1ncc(-c2cccc(-c3cccc(-c4cnc(CNC[C@@H]5CCC(=O)N5)c(OC)n4)c3Cl)c2Cl)nc1OC [compound 19]
0.546 | CNC(=O)[C@H]1CCCN1Cc1ncc(-c2cccc(-c3cccc(-c4cnc(CNC[C@@H]5CCC(=O)N5)c(OC)n4)c3Cl)c2Cl)nc1OC [compound 20]
0.525 | COC[C@H]1CCCN1Cc1ncc(-c2cccc(-c3cccc(-c4cnc(CNC[C@@H]5CCC(=O)N5)c(OC)n4)c3Cl)c2Cl)nc1OC [compound 21]
0.506 | COC[C@@H]1CCCN1Cc1ncc(-c2cccc(-c3cccc(-c4cnc(CNC[C@@H]5CCC(=O)N5)c(OC)n4)c3Cl)c2Cl)nc1OC [compound 22]
0.221 | COc1nc(-c2cccc(-c3cccc(-c4cnc(CN5CCC[C@@H]5CO)c(OC)n4)c3Cl)c2Cl)cnc1CNC[C@@H]1CCC(=O)N1 [compound 23]
0.179 | COc1nc(-c2cccc(-c3cccc(-c4cnc(CN5CCC[C@H]5CO)c(OC)n4)c3Cl)c2Cl)cnc1CNC[C@@H]1CCC(=O)N1 [compound 24]
0.08 | COc1nc(-c2cccc(-c3cccc(-c4cnc(CNC[C@@H]5CCC(=O)N5)c(OC)n4)c3Cl)c2Cl)cnc1CNCCOC(N)=O [compound 25]
0.06 | COc1nc(-c2cccc(-c3cccc(-c4cnc(CNC[C@@H]5CCC(=O)N5)c(OC)n4)c3Cl)c2Cl)cnc1CNCc1cnn(CCO)c1 [compound 26]
0.09 | COc1nc(-c2cccc(-c3cccc(-c4cnc(CNC[C@@H]5CCC(=O)N5)c(OC)n4)c3Cl)c2Cl)cnc1CNCc1ccn(C)n1 [compound 27]
0.436 | COc1nc(-c2cccc(-c3cccc(-c4cnc(CNC[C@@H]5CCC(=O)N5)c(OC)n4)c3Cl)c2Cl)cnc1CNCc1nc[nH]n1 [compound 28]

IC50 [nM] | Compound
1.09 | COc1nc(-c2cccc(-c3cccc(-c4cnc(CNCc5nc(C)n[nH]5)c(OC)n4)c3Cl)c2Cl)cnc1CNCc1nc(C)n[nH]1 [compound 29]
0.475 | COc1nc(-c2cccc(-c3cccc(-c4cnc(CNCc5ccn(C)n5)c(OC)n4)c3Cl)c2Cl)cnc1CNCc1ccn(C)n1 [compound 30]
0.334 | CCn1cc(CNCc2ncc(-c3cccc(-c4cccc(-c5cnc(CNCc6cnn(CC)c6)c(OC)n5)c4Cl)c3Cl)nc2OC)cn1 [compound 31]
0.187 | CCn1cc(CNCc2ncc(-c3cccc(-c4cccc(-c5cnc(CNC[C@@H]6CCC(=O)N6)c(OC)n5)c4Cl)c3Cl)nc2OC)nn1 [compound 32]
0.138 | COc1nc(-c2cccc(-c3cccc(-c4cnc(CNC[C@@H]5CCC(=O)N5)c(OC)n4)c3Cl)c2Cl)cnc1CNCCc1cnn[nH]1 [compound 33]
0.231 | COc1nc(-c2cccc(-c3cccc(-c4cnc(CNC[C@@H]5CCC(=O)N5)c(OC)n4)c3Cl)c2Cl)cnc1CNCc1ccnn1C [compound 34]
0.191 | COc1nc(-c2cccc(-c3cccc(-c4cnc(CNC[C@@H]5CCC(=O)N5)c(OC)n4)c3Cl)c2Cl)cnc1CNCc1c[nH]nn1 [compound 35]
1.29 | COc1nc(-c2cccc(-c3cccc(-c4cnc(CN5C[C@@H](N)CCC5=O)c(OC)n4)c3Cl)c2Cl)cnc1CNC[C@@H]1CCC(=O)N1 [compound 36]
1.7 | COc1nc(-c2cccc(-c3cccc(-c4cnc(CNC[C@@H]5CCC(=O)N5)c(OC)n4)c3Cl)c2Cl)cnc1CNCCNc1ccc([N+](=O)[O-])cc1 [compound 37]
0.66 | COc1nc(-c2cccc(-c3cccc(-c4cnc(CNC(CO)c5nn[nH]n5)c(OC)n4)c3Cl)c2Cl)cnc1CNC[C@@H]1CCC(=O)N1 (stereo partly shown) [compound 38]
0.39 | COc1nc(-c2cccc(-c3cccc(-c4cnc(CN[C@H]5CCNC5=O)c(OC)n4)c3Cl)c2Cl)cnc1CNC[C@@H]1CCC(=O)N1 [compound 39]
0.238 | COc1nc(-c2cccc(-c3cccc(-c4cnc(CN5C[C@@H](F)C[C@H]5CO)c(OC)n4)c3Cl)c2Cl)cnc1CNC[C@@H]1CCC(=O)N1 [compound 40]
0.083 | COc1nc(-c2cccc(-c3cccc(-c4cnc(CN5CCNC(=O)C5)c(OC)n4)c3Cl)c2Cl)cnc1CNC[C@@H]1CCC(=O)N1 [compound 41]
3.42 | COc1nc(-c2cccc(-c3cccc(-c4cnc(CNC[C@@H]5CCC(=O)N5)c(OC)n4)c3Cl)c2Cl)cnc1CNCCS(=O)(=O)O [compound 42]
0.083 | COc1nc(-c2cccc(-c3cccc(-c4cnc(CNC[C@@H]5CCC(=O)N5)c(OC)n4)c3Cl)c2Cl)cnc1CNCCS(N)(=O)=O [compound 43]
0.113 | COc1nc(-c2cccc(-c3cccc(-c4cnc(CNC[C@@H]5CCC(=O)N5)c(OC)n4)c3Cl)c2Cl)cnc1CNCCNC(N)=O [compound 44]
0.064 | COc1nc(-c2cccc(-c3cccc(-c4cnc(CNC[C@@H]5CCC(=O)N5)c(OC)n4)c3Cl)c2Cl)cnc1CNCCC(N)=O [compound 45]
0.081 | COc1nc(-c2cccc(-c3cccc(-c4cnc(CN(C)C)c(OC)n4)c3Cl)c2Cl)cnc1CNC[C@@H]1CCC(=O)N1 [compound 46]
0.16 | COc1nc(-c2cccc(-c3cccc(-c4cnc(CNC[C@@H]5CCC(=O)N5)c(OC)n4)c3Cl)c2Cl)cnc1CNCC(O)C(F)(F)F (stereo partly shown) [compound 47]
0.822 | CCN(CCc1cn[nH]c1)Cc1ncc(-c2cccc(-c3cccc(-c4cnc(CNC[C@@H]5CCC(=O)N5)c(OC)n4)c3Cl)c2Cl)nc1OC [compound 48]
0.356 | COc1nc(-c2cccc(-c3cccc(-c4cnc(CNC[C@@H]5CCC(=O)N5)c(OC)n4)c3Cl)c2Cl)cnc1CNCCc1cn[nH]c1 [compound 49]
0.259 | COc1nc(-c2cccc(-c3cccc(-c4cnc(CN5CC6(CNC(=O)O6)C5)c(OC)n4)c3Cl)c2Cl)cnc1CNC[C@@H]1CCC(=O)N1 [compound 50]
0.301 | COc1nc(-c2cccc(-c3cccc(-c4cnc(CN(C)CC(N)=O)c(OC)n4)c3Cl)c2Cl)cnc1CNC[C@@H]1CCC(=O)N1 [compound 51]
0.17 | COc1nc(-c2cccc(-c3cccc(-c4cnc(CN5CC6CC6(CO)C5)c(OC)n4)c3Cl)c2Cl)cnc1CNC[C@@H]1CCC(=O)N1 (stereo partly shown) [compound 52]
0.1 | COc1nc(-c2cccc(-c3cccc(-c4cnc(CN5CC6CC5(CO)C6)c(OC)n4)c3Cl)c2Cl)cnc1CNC[C@@H]1CCC(=O)N1 [compound 53]
0.18 | COc1nc(-c2cccc(-c3cccc(-c4cnc(CNC[C@H]5CCC[C@@H]5O)c(OC)n4)c3Cl)c2Cl)cnc1CNC[C@@H]1CCC(=O)N1 [compound 54]
0.26 | COc1nc(-c2cccc(-c3cccc(-c4cnc(CNC[C@@H]5CCC(=O)N5)c(OC)n4)c3Cl)c2Cl)cnc1CNCC1CCCCO1 (stereo partly shown) [compound 55]
